Assay results as given in the NIST ThermoML archive (doi:10.1016/j.jct.2018.02.022).

Experiment: xn = mol fraction of the nth substance listed
Details: 92.3 kPa, Liquid; for viscosity: Concentric cylinders viscometry; for speed of sound: Frequency=3 MHz, Single path-length method; for mass density: Vibrating tube method

OCCOCCOCCO [triethylene glycol] + O
Details | mass density, 303.15 K [kg/m3] | mass density, 308.15 K [kg/m3] | speed of sound, 303.15 K [m/s] | speed of sound, 308.15 K [m/s] | viscosity, 303.15 K [mPa·s] | viscosity, 308.15 K [mPa·s]
x1 = 0.0101 | 1006.7 | 1005.03 | 1546.6 | 1554.2 | – | –
x1 = 0.0196 | 1016.05 | 1014.27 | 1577.2 | 1582.2 | – | –
x1 = 0.025 | 1021.12 | 1019.05 | – | – | 1.425 | 1.265
x1 = 0.029 | 1025.03 | 1022.86 | 1604.2 | 1606.8 | – | –
x1 = 0.0381 | 1032.5 | 1030.16 | 1626.5 | 1627 | – | –
x1 = 0.0489 | 1040.16 | 1037.64 | – | – | 2.135 | 1.865
x1 = 0.0496 | 1041.07 | 1038.52 | 1650.4 | 1648.6 | – | –
x1 = 0.0601 | 1048.1 | 1045.38 | 1668.4 | 1664.8 | – | –
x1 = 0.0689 | 1053.32 | 1050.48 | 1680.7 | 1675.8 | – | –
x1 = 0.0754 | 1056.69 | 1053.78 | – | – | 3.109 | 2.68
x1 = 0.0801 | 1059.3 | 1056.32 | 1693.4 | 1687 | – | –
x1 = 0.0905 | 1064.27 | 1061.17 | 1702.5 | 1695 | – | –
x1 = 0.0993 | 1068.24 | 1065.07 | – | – | 4.145 | 3.561
x1 = 0.0996 | 1068.21 | 1065.01 | 1708.8 | 1700.4 | – | –
x1 = 0.1479 | 1083.73 | 1080.2 | 1722.1 | 1710.8 | – | –
x1 = 0.15 | 1085.03 | 1081.49 | – | – | 6.732 | 5.617
x1 = 0.1993 | 1094.5 | 1090.78 | – | – | 9.456 | 7.962
x1 = 0.2004 | 1093.95 | 1090.24 | 1716.5 | 1703.7 | – | –
x1 = 0.2462 | 1099.63 | 1095.85 | 1705.3 | 1691.9 | – | –
x1 = 0.2526 | 1100.4 | 1096.6 | – | – | 12.39 | 10.33
x1 = 0.2998 | 1103.65 | 1099.82 | – | – | 14.86 | 12.25
x1 = 0.3004 | 1103.99 | 1100.16 | 1690.6 | 1676.8 | – | –
x1 = 0.3474 | 1106.59 | 1102.74 | 1678.1 | 1664.2 | – | –
x1 = 0.3539 | 1106.3 | 1102.46 | – | – | 17.36 | 14.19
x1 = 0.3948 | 1108.5 | 1104.64 | 1666.6 | 1652.5 | – | –
x1 = 0.4009 | 1108.18 | 1104.33 | – | – | 19.33 | 15.72
x1 = 0.4467 | 1110.04 | 1106.18 | 1655.4 | 1641.2 | – | –
x1 = 0.4492 | 1109.87 | 1106.02 | – | – | 21.06 | 17.03
x1 = 0.4992 | 1111.36 | 1107.51 | – | – | 22.58 | 18.22
x1 = 0.5021 | 1111.28 | 1107.42 | 1644.9 | 1630.7 | – | –
x1 = 0.548 | 1112.08 | 1108.22 | 1637.5 | 1623.2 | – | –
x1 = 0.5484 | 1112.51 | 1108.65 | – | – | 23.9 | 19.23
x1 = 0.5923 | 1112.73 | 1108.87 | 1631 | 1616.6 | – | –
x1 = 0.5996 | 1113.32 | 1109.45 | – | – | 24.96 | 20.07
x1 = 0.6442 | 1113.33 | 1109.46 | 1624.5 | 1610.1 | – | –
x1 = 0.6506 | 1113.74 | 1109.87 | – | – | 25.86 | 20.77
x1 = 0.701 | 1113.89 | 1110.02 | – | – | 26.76 | 21.48
x1 = 0.7095 | 1113.94 | 1110.08 | 1617.7 | 1603.2 | – | –
x1 = 0.7531 | 1114.3 | 1110.43 | 1613.4 | 1598.8 | – | –
x1 = 0.7567 | 1113.98 | 1110.11 | – | – | 27.55 | 22.1
x1 = 0.7859 | 1114.55 | 1110.68 | 1610.5 | 1595.9 | – | –
x1 = 0.8035 | 1114.18 | 1110.31 | – | – | 28.08 | 22.51
x1 = 0.8387 | 1114.87 | 1111 | 1606.6 | 1591.9 | – | –
x1 = 0.8406 | 1114.51 | 1110.64 | – | – | 28.48 | 22.83
x1 = 0.8981 | 1115.27 | 1111.39 | – | – | 28.88 | 23.14
x1 = 0.9031 | 1115.25 | 1111.37 | 1602 | 1587.2 | – | –
x1 = 0.9181 | 1115.31 | 1111.42 | 1601.3 | 1586.5 | – | –
x1 = 0.9344 | 1115.4 | 1111.52 | 1600.4 | 1585.5 | – | –
x1 = 0.9489 | 1115.8 | 1111.91 | – | – | 29.26 | 23.46
x1 = 0.9569 | 1115.5 | 1111.62 | 1599 | 1584.2 | – | –
x1 = 0.9782 | 1115.59 | 1111.71 | 1597.9 | 1583 | – | –
x1 = 1 | 1115.7 | 1111.81 | 1596.6 | 1581.7 | 29.59 | 23.72
